Reference: ChEMBL document CHEMBL6078713, “Synthesis and mechanistic studies of 4-aminoquinoline-Isatin molecular hybrids and Schiff's bases as promising antimicrobial agents” (Eur J Med Chem, 2025)

Tested on: Escherichia coli
Experiment: Antibacterial activity against Escherichia coli clinical isolate ECJH8 assessed as diameter of zone of inhibition by disk diffusion assay
Format: functional

Structure (SMILES): O=[N+]([O-])c1ccccc1/C=N/CCNc1ccnc2cc(Cl)ccc12
- diameter of the inhibition zone (DIZ): 9 mm
